# Columns and labels:
# [1] = tested on: AMPK phosphorylation through AdipoR1 in ORS cells; assay: Western blot p-AMPK in AdipoR1 siRNA-transfected ORS cells; format: cell-based, human
# Text: (§1) Following the confirmation of the molecular interaction between AdipoR1 and P5, we evaluated the activation of the intracellular signaling pathway by P5. We investigated whether APN treatment on ORS and DP cells could activate AMPK or ERK signaling pathways, which are previously known to be downstream effectors of AdipoR1 (Mao et al, [2006]; Deepa & Dong, [2009]; Shibata et al, [2012]). […] Next, for determination of whether both P5 and APN mediates the phosphorylation of AMPK through AdipoR1 in ORS and DP cells, the cells were transfected with AdipoR1 siRNA (Appendix Fig S1). […] Collectively, P5 activates AMPK signaling pathway through AdipoR1 in ORS and DP cells in vitro.
# (§2) All transfections were performed using Lipofectamine 2000 following the manufacturer’s instructions (#11668019; Thermo Fisher). Human DP and ORS cells were cultured without antibiotics until reaching 50% confluency. AdipoR1 or scrambled siRNA (Bioneer) was used. The culture medium was changed 6 h after transfection, and the cells were incubated for another 24 h before subsequent analyses.
# (§3) Human ORS and DP cells or skin tissue were lysed (RIPA lysis buffer; #20‐188; Merck Millipore). […] Antibody‐antigen complexes detected by enhanced chemiluminescent substrate (Thermo Fisher) were captured and quantified by Amersham imager 680 systems (GE Healthcare).
# [2] = tested on: AMPK phosphorylation through AdipoR1 in DP cells; assay: Western blot p-AMPK in AdipoR1 siRNA-transfected DP cells; format: cell-based, human
# Text: as §1, §2, §3
# IGF-1 mRNA = assay: qRT-PCR growth factor gene expression in DP cells, IGF-1; format: cell-based, human; settings: for mRNA_IGF1: DP cells
# Text: (§4) Next, we investigated the downstream effects of P5 on hair growth factor genes and proteins in DP cells. […] We tested whether P5 can also increase the mRNA levels and proteins of hair growth factors in DP cells: IGF‐1, VEGF, HGF, platelet‐derived growth factor alpha (PDGFA), and fibroblast growth factor (FGF) 7, which are known to induce or maintain the anagen phase of the hair cycle (Jindo et al, [1994]; Philpott et al, [1994]; Yano et al, [2001]; Jang, [2005]; Tomita et al, [2006]; Iino et al, [2007]).
# (§5) Total RNA was isolated from P5‐treated DP cells using RNAiso Plus (#9109; TaKaRa). We used the total RNA (1 µg) for cDNA synthesis using a RevertAid First Strand cDNA Synthesis Kit (Thermo Fisher) according to the manufacturer's instructions. The mRNA expression levels were quantified on a 7500 Real‐time PCR System (Thermo Fisher) using TB Green Premix Ex Taq (TaKaRa Bio): human IGF‐1, VEGF, HGF, PDGFA, FGF7, and glyceraldehyde 3‐phosphate dehydrogenase (GAPDH) (Appendix Table S2). The relative expression levels of each gene were determined by the 2^‐ΔΔCT method.
# VEGF mRNA = assay: qRT-PCR growth factor gene expression in DP cells, VEGF; format: cell-based, human; settings: for mRNA_VEGF: DP cells
# Text: as §4, §5
# [3] = Transdermal delivery in ex vivo human skin tissue culture, qualitative MS of dermal lysate; format: in vitro ADME; settings: 50 mM in DMSO placed daily, 5 days, 37°C, dermal lysate in 50% methanol
# Text: Next, we checked whether topically applied P5 can be delivered into human skin using ex vivo skin tissue culture model (Fig EV4A) (Haslam et al, [2018]). After topical application of vehicle or P5 on the ex vivo skin tissue, the dermal lysate of each tissue was examined by the qualitative mass spectrometry (MS). […] To trace the origin of P5, we used isotope‐marked P5 (P5*), in which carbon (^12C) atoms of Gly were substituted with isotope carbon atoms (^13C) increasing the molecular weight by 2 compared to that of original P5 (Fig EV4B). […] Collectively, P5 can be transdermally delivered into human skin.
# Topical application of peptides on ex vivo skin study was performed as described previously (Haslam et al, [2018]). Briefly, full thickness skin tissue from cadavers within 48 h after death was acquired and biopsied using a 6 mm punch. The skin tissue was acclimatized in supplemented Williams’ E media with L‐glutamine (2 mM), penicillin‐streptomycin solution (1×), hydrocortisone (10 ng/ml), and insulin (100 ng/ml) overnight at 37°C in a 5% CO2 atmosphere. After acclimatization, the skin tissue was carefully pulled through a cell strainer with the epidermis exposed to the air, leaving the dermis submerged in the culture media. […] The lysate was qualitatively analyzed by a MS system (API 4000 Q‐trap; AB SCIEX).
# [4] = P5 5μM, relative to Control = 1, replicate 1
# [5] = P5 5μM, relative to Control = 1, replicate 2
# [6] = P5 5μM, relative to Control = 1, replicate 3
# [7] = P5 5μM, relative to Control = 1, replicate 4
# [8] = P5 25μM, relative to Control = 1, replicate 1
# [9] = P5 25μM, relative to Control = 1, replicate 2
# [10] = P5 25μM, relative to Control = 1, replicate 3
# [11] = P5 25μM, relative to Control = 1, replicate 4
substance,measurement,setting,value
"GLYYF [P5, GST-fused (GST-P5) in pulldown assays]","p-AMPK intensity after AdipoR1 siRNA transfection, ORS cells",[1],intensity was reduced
same,"p-AMPK intensity after AdipoR1 siRNA transfection, DP cells",[2],intensity was reduced
same,mRNA_IGF1,IGF-1 mRNA; [4],1.775
same,mRNA_IGF1,IGF-1 mRNA; [5],0.9141
same,mRNA_IGF1,IGF-1 mRNA; [6],1.9981
same,mRNA_IGF1,IGF-1 mRNA; [7],0.5956
same,mRNA_IGF1,"IGF-1 mRNA; P5 5μM, relative to Control = 1, replicate 5",0.9696
same,mRNA_IGF1,IGF-1 mRNA; [8],4.048
same,mRNA_IGF1,IGF-1 mRNA; [9],1.581
same,mRNA_IGF1,IGF-1 mRNA; [10],3.012
same,mRNA_IGF1,IGF-1 mRNA; [11],4.414
same,mRNA_IGF1,"IGF-1 mRNA; P5 25μM, relative to Control = 1, replicate 5",1.2502
same,IGF-1 mRNA expression,"IGF-1 mRNA; P5-treated DP cells, n = 5",significantly increased
same,mRNA_VEGF,VEGF mRNA; [4],1.194
same,mRNA_VEGF,VEGF mRNA; [5],1.24
same,mRNA_VEGF,VEGF mRNA; [6],0.9876
same,mRNA_VEGF,VEGF mRNA; [7],0.849
same,mRNA_VEGF,VEGF mRNA; [8],2.123
same,mRNA_VEGF,VEGF mRNA; [9],1.672
same,mRNA_VEGF,VEGF mRNA; [10],2.456
same,mRNA_VEGF,VEGF mRNA; [11],1.575
same,VEGF mRNA expression,"VEGF mRNA; P5-treated DP cells, n = 4",significantly increased
same,Detection in skin dermis after topical application (transdermal delivery),[3],qualitatively detected
